Source: patent publication US20220372014A1, “NEUROPROTECTIVE COMPOUNDS AND METHODS OF USE THEREOF” (The Johns Hopkins University, priority 2019, published 2022)
Entries after “also recorded” stand apart in the source; their conditions may differ.

Columns and labels:
HT 22 cells = assay: TNF-α and z-VAD-induced necroptosis, Alamar blue; assay type: cell-based; conditions: 1 ng/ml TNF-α with 50 μM z-VAD
Protocol: (§1) Graphs represent mean±s.e.m. ***P<0.0005, two-way ANOVA followed by Tukey's post hoc test (n=3). A PARP inhibitor, ABT-888 is used for the positive control. FIGS. 12B and 12C show in vitro oxidoreductase and tautomerase activity of MIF/PAAN with compound 41, 56, 76, or 77. FIGS. 12D and 12E show Alamar blue cell viability assay from SH-SY5Y cells pre-incubated with compound 41, 56, 76, or 77 in response to 0.5 μM staurosporine (STS) or from HT 22 cells incubated with 1 ng/ml of TNF-α with 50 μM z-VAD. A pan caspase inhibitor, z-VAD or necrostatin (Nec-1) is used for the positive control and PARP inhibitor, ABT-888 is used for negative control. Bars represent mean±s.e.m. ***P<0.0005, two-way ANOVA followed by Tukey's post hoc test (n=3). […] Bars represent mean±s.e.m. **P<0.005, ***P<0.0005, two-way ANOVA followed by Tukey's post hoc test (n=3).
(§2) FIGS. 14A-14G show the characterization of compound 121. […] Bars represent means±s.e.m. ***P<0.0005, two-way ANOVA followed by Tukey's post hoc test (n=4). […] Bars represent mean±s.e.m. ***P<0.0005, two-way ANOVA followed by Tukey's post hoc test (n=4). […] Bars represent means±s.e.m. **P<0.005, ***P<0.0005, one-way ANOVA followed by Tukey's post hoc test (n=3). […] Bar represent mean±s.e.m. ***P<0.0005, one-way ANOVA followed by Tukey's post hoc test (n=3). […] Quantification of inhibition of PARP-1 activity by compound 56, compound 121 and ABT-888 is shown. Graphs represent mean±s.e.m. ***P<0.0005, two-way ANOVA followed by Tukey's post hoc test (n=3). FIGS. 14F and 14G show Alamar blue cell viability assay from SH-SY5Y cells pre-incubated with either compound 56 or 121 in response to (14F) 0.5 μM staurosporine (STS) or (14G) from HT 22 cells incubated with 1 ng/ml of TNF-α with 50 μM z-VAD. Bars represent mean±s.e.m. ***P<0.0005, two-way ANOVA followed by Tukey's post hoc test (n=5).
(§3) Cell death and viability assessment. Primary cultured cortical neurons were treated with 5 μg/ml of α-syn PFF for 14 days and cell death was determined by staining of all nuclei with 7 μM Hoechst 33342 and dead cell nuclei with 2 μM propidium iodide (PI) (Invitrogen). The numbers of total and dead cells were counted with the Axiovision 4.6 software (Carl Zeiss). Cell viability was determined by fluorescence at an excitation wavelength 570 nm and an emission wavelength 585 nm using Alamar Blue (Invitrogen).

SH-SY5Y cells = assay: Staurosporine (STS)-induced apoptotic cell death, Alamar blue; assay type: cell-based; conditions: 0.5 μM STS
Protocol: as §1, §2, §3

ExoIII = ExoIII (Escherichia coli, UniProt P09030); assay: In vitro nuclease assay of ExoIII (18 bp double-strand DNA substrate); assay type: biochemical
Protocol: Nuclease assay. Purified PAAN/MIF protein (4 μM) was incubated with compounds (10 μM) in the nuclease buffer [10 mM Tris-C1 (pH 7.0) and 10 mM MgCl2] for 20 m on ice. Then samples were added with 1 μM of PAAN/MIF substrate (PS30 or RF) and incubated for 1 h at 37° C. The reaction was terminated with loading buffer containing 10 mM EDTA and separated on 15% TBE-urea polyacrylamide (PAGE) gel or 20% TBE PAGE gel. For other nucleases (EcoRI and EcoRV) assays, pcDNA3 (500 ng/reaction) was used as a substrate and 0.01 unit of Exonulcase III were incubated with small dsDNA (Sequence ID NO 4:5′-[…]-3′ and Sequence ID NO 5:5′-[…]-3′).

human cortical neurons = assay: α-syn PFF-induced cell death in human cortical neurons (Hoechst and PI staining); assay type: cell-based; conditions: pre-incubated 1 h, α-syn PFF 14 days
Protocol: Preparation of human cortical neurons. Human H1 embryonic stem cells (ESCs) were differentiated into cortical neurons as previously described. See Xu et al. (2016) Sci. Transl. Med. 8:333ra48. Briefly, ESC colonies detached from mouse embryonic fibroblasts (MEFs) were grown in suspension in human ESC medium without FGF2 for 6 days in low-attachment six-well plates (Corning). On day 7, free-floating embyroid bodies (EB)s were transferred to Matrigel coated plates to allow the complete attachment of EB and formation of rosette neuronal aggregates (RONAs). RONAs were manually microisolated and maintained as neurospheres for 1 day and then dissociated into single cells and plated on laminin/poly-D-lysine-coated plates for further experiments. […]
as §3

ExoIII, sequence (P09030 whole entry): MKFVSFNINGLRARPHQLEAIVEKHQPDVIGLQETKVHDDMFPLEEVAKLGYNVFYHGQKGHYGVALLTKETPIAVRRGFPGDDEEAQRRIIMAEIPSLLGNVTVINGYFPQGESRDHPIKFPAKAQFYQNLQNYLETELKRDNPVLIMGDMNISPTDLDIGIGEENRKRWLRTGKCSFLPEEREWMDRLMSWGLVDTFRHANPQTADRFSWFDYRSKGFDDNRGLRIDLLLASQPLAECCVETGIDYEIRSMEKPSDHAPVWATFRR

Row | SMILES | TNFα and Z-VAD-induced necroptosis (HT 22 cells) | staurosporine (STS)-induced apoptotic cell death (SH-SY5Y cells) | nuclease activity of ExoIII (ExoIII) | cell death in human cortical neurons treated with human α-syn PFF (human cortical neurons)
1 | COc1ccc(CC[C@H]2OC(=O)[C@@H]3CCCCN3C(=O)C(=O)C(C)(C)COC(=O)C=CCCN(C)C(=O)[C@@H]3CCCN3C(=O)[C@H](COC(C)(C)C)N(C)C(=O)C(c3ccccc3)NC(=O)[C@H](C)N(C)C(=O)COc3cc(F)cc2c3)cc1OC (mixture of isomers) [compound 121] | failed to inhibit | failed to inhibit |  | 
2 | COc1ccc(CC[C@H]2OC(=O)[C@@H]3CCCCN3C(=O)C(=O)C(C)(C)COC(=O)C=CCCN(C)C(=O)[C@@H]3CCCN3C(=O)[C@H](COC(C)(C)C)N(C)C(=O)C(c3ccccc3)NC(=O)CN(C)C(=O)COc3cccc2c3)cc1OC (stereo partly shown) [compound 41] | not prevented | do not inhibit | do not inhibit | 
3 | COc1ccc(CC[C@H]2OC(=O)[C@@H]3CCCCN3C(=O)C(=O)C(C)(C)COC(=O)C=CCCN(C)C(=O)[C@@H]3CCCN3C(=O)[C@H](COC(C)(C)C)N(C)C(=O)C(c3ccccc3)NC(=O)[C@H](C)N(C)C(=O)COc3cccc2c3)cc1OC (stereo partly shown) [compound 56] | not prevented; also recorded: failed to inhibit | do not inhibit; also recorded: failed to inhibit | do not inhibit | protected against cell death similar to ABT-888
4 | COc1ccc(CC[C@H]2OC(=O)[C@@H]3CCCCN3C(=O)C(=O)C(C)(C)COC(=O)C=CCCN(C)C(=O)CNC(=O)[C@H](C(C)C)N(C)C(=O)[C@@H](Cc3ccccc3)NC(=O)[C@H](CC(C)C)N(C)C(=O)CCC(=O)Nc3cccc2c3)cc1OC [compound 76] | not prevented | do not inhibit | do not inhibit | 
5 | COc1ccc(CC[C@H]2OC(=O)[C@@H]3CCCCN3C(=O)C(=O)C(C)(C)COC(=O)C=CCCN(C)C(=O)[C@H](C)NC(=O)[C@H](C(C)C)N(C)C(=O)[C@@H](Cc3ccccc3)NC(=O)[C@H](CC(C)C)N(C)C(=O)CCC(=O)Nc3cccc2c3)cc1OC [compound 77] | not prevented | do not inhibit | do not inhibit | protected against cell death similar to ABT-888
